Laboratory results taken from paper PMC11451635, “A Broad Spectrum Lasso Peptide Antibiotic Targeting the Bacterial Ribosome” (Research Square, 2024).
“Also recorded” adds a separate entry of the source.

Columns and labels:
E. coli ribosome = assay: Translocation inhibition assay; type: biochemical, Escherichia coli; settings: 62.5 μM LAR or 250 μM negamycin, EF-G/GTP, primer extension
[1] = test system: T. thermophilus 70S ribosome; assay: X-ray structure of ribosome complex; type: binding, Thermus thermophilus; settings: 70S ribosome with mRNA and tRNAs, 250 μM antibiotic
bacteria = assay: Antibiotic activity compared with LAR; type: cell-based; settings: Supplementary Fig. 11
Experimental: MICs were determined using broth microdilution method in cation-adjusted Mueller-Hinton Broth (MHBII, BD Difco) following standard procedures unless stated otherwise. Mycobacteria susceptibility was tested in Middlebrook 7H9 medium supplemented with 10% OADC Enrichment (oleic acid, bovine albumin, dextrose, and catalase) (BD Difco). The compounds (2 to 4 μl) were mixed with diluted cultures (5–7 × 10^5 cfu/mL) in MHB (196 to 198 μL) in 96-well round-bottom plates, and 2-fold serial dilutions were made. Plates were incubated at 37°C for 18–22 h, and OD600 readings were taken on Synergy Microplate Reader (Biotek). MIC was determined to be the lowest concentration of antibiotics with no visible growth. For Mycobacterial cultures, the plates were read after two to three days. Susceptibility was also assessed in MOPS minimal medium with 0.4% glucose (M2106 Teknova) and RPMI-1640 medium. Serum effects were tested in MHB with 10% or 50% fetal bovine serum (Invitrogen) or human serum (Heat Inactivated, from human male AB plasma; Sigma-Aldrich). For anaerobic conditions, E. coli was incubated in BD GasPak™ EZ pouch systems. To adjust the pH of the media, 1M NaOH or 1N HCl was used.

ClpP protease = settings: cited from earlier work
mycobacteria = settings: cited from earlier work

With `CN(CC(=O)O)NC(=O)C[C@H](N)C[C@@H](O)CN` [negamycin, reference compound] as the molecule, how does the “Inhibition of ribosome translocation” value (E. coli ribosome) read?
Its value is “interferes with the movement of mRNA/tRNA complex through the ribosome”.

With lariocidin B [LAR-B] as the molecule, how does the “Ribosome binding (X-ray structure)” value [1] read?
The value was “Both LAR variants form very similar complexes with the ribosome”.

And the “Antibiotic activity relative to LAR” value (bacteria)?
The value was “antibiotic activity comparable to that of the main LAR product; also recorded: closely matched that of LAR”.

Which Target / activity (ClpP protease) does the source give for lassomycin here?
The Target / activity was “targets microbial ClpP protease”.

What about the Antimycobacterial activity (mycobacteria) of the same molecule?
Its Antimycobacterial activity is “exhibits antimycobacterial activity”.

Which Antimycobacterial activity (mycobacteria) does the source give for triculamin here?
The Antimycobacterial activity was “antimycobacterial”.
